Reference: ChEMBL document CHEMBL1201862, “PubChem BioAssay data set” (2004)
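Five compound concentrations were applied to cells in 96-well plates for 48 hours; endpoints were derived by simple linear interpolation of the resulting dose-response curve. Abbreviation: GI50, concentration required for 50% inhibition of growth.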 Calls of active or inactive are those of the source. Rule as the data show it: active = GI50 up to about 1.1 µM and inactive = higher.

Legend:
Assay in all cases: DTP human tumour cell line panel, 48 h
CAKI-1 = test system: CAKI-1
COLO 205 = test system: COLO 205
EKVX = test system: EKVX
HCC 2998 = test system: HCC 2998
HCT-15 = test system: HCT-15
HOP-62 = test system: HOP-62
HOP-92 = test system: HOP-92
HT-29 = test system: HT-29
IGROV-1 = test system: IGROV-1
KM12 = test system: KM12
M14 = test system: M14
MDA-N = test system: MDA-N
OVCAR-8 = test system: OVCAR-8
RPMI-8226 = test system: RPMI-8226
RXF 393 = test system: RXF 393
SF-295 = test system: SF-295
SK-MEL-2 = test system: SK-MEL-2
SK-MEL-5 = test system: SK-MEL-5
T47D = test system: T47D
TK-10 = test system: TK-10

Row | SMILES | GI50 (CAKI-1) | GI50 (COLO 205) | GI50 (EKVX) | GI50 (HCC 2998) | GI50 (HCT-15) | GI50 (HOP-62) | GI50 (HOP-92) | GI50 (HT-29) | GI50 (IGROV-1) | GI50 (KM12) | GI50 (M14) | GI50 (MDA-N) | GI50 (OVCAR-8) | GI50 (RPMI-8226) | GI50 (RXF 393) | GI50 (SF-295) | GI50 (SK-MEL-2) | GI50 (SK-MEL-5) | GI50 (T47D) | GI50 (TK-10)
1 | N/C(=N\N=C\c1c[nH]c2ccccc12)Nc1ccccc1 | 0.519 µM (active) | 0.188 µM (active) | 2.92 µM (inactive) | 0.594 µM (active) | 0.318 µM | 0.308 µM (active) | 0.392 µM (active) | 0.191 µM (active) | 0.865 µM (active) | 0.153 µM (active) | 0.11 µM (active) | 0.0219 µM (active) | 0.41 µM (active) | 1 µM (active) | 0.156 µM (active) | 0.134 µM (active) | 0.345 µM (active) | 0.176 µM (active) | 1.36 µM (inactive) | 1.28 µM (inactive)
2 | O=C(C1=CCC2(CC1)OCCO2)N(Cc1ccccc1)c1ccccc1I | 24.5 µM (inactive) | 17.7 µM (inactive) | 16.4 µM (inactive) | 16.8 µM (inactive) | 23 µM | 22.4 µM (inactive) | 16.1 µM (inactive) | 17.9 µM (inactive) | – | 14.1 µM (inactive) | 16.9 µM (inactive) | 29 µM (inactive) | 16.4 µM (inactive) | 24.4 µM (inactive) | 28.3 µM (inactive) | 21.4 µM (inactive) | 21.2 µM (inactive) | 13.9 µM (inactive) | 18.4 µM (inactive) | 21.5 µM (inactive)
3 | COc1ccc(OC)c(Cc2cnc3nc(N)nc(N)c3c2C)c1 [PIRITREXIM ISETHIONATE] | 0.0456 µM (active) | 12.9 µM (inactive) | 19.5 µM (inactive) | 0.258 µM (active) | 0.0149 µM | 0.188 µM (active) | 0.752 µM (active) | < 0.0168 µM (active) | < 0.0111 µM (active) | 0.243 µM (active) | < 0.0201 µM (active) | < 0.018 µM (active) | < 0.0234 µM (active) | 0.173 µM (active) | 2.06 µM (inactive) | 0.0592 µM (active) | 0.986 µM (active) | 0.0955 µM (active) | 11.1 µM (inactive) | 13.5 µM (inactive)
4 | C=C1c2nc3ccccc3n2C=C(c2ccccc2)N1c1ccc(Cl)cc1 | 7.08 µM (inactive) | > 64.3 µM (inactive) | 13.4 µM (inactive) | 65.6 µM (inactive) | 33.3 µM | 18.7 µM (inactive) | 26.8 µM (inactive) | 18.6 µM (inactive) | 10.6 µM (inactive) | 24 µM (inactive) | 17.1 µM (inactive) | 78.9 µM (inactive) | 25.1 µM (inactive) | > 55.3 µM (inactive) | 17.5 µM (inactive) | 12.6 µM (inactive) | 69.5 µM (inactive) | 15.3 µM (inactive) | 12.6 µM (inactive) | 13.4 µM (inactive)
5 | CCC12CN(C(=O)OC)C3C(Br)C1CCC(=O)C32 (stereo unspecified) | > 100 µM (inactive) | > 100 µM (inactive) | > 100 µM (inactive) | > 100 µM (inactive) | > 100 µM | > 100 µM (inactive) | > 100 µM (inactive) | > 100 µM (inactive) | > 100 µM (inactive) | > 100 µM (inactive) | > 100 µM (inactive) | > 100 µM (inactive) | > 100 µM (inactive) | > 100 µM (inactive) | > 100 µM (inactive) | > 100 µM (inactive) | > 100 µM (inactive) | > 100 µM (inactive) | > 100 µM (inactive) | > 100 µM (inactive)
6 | COC(=O)N1C2C(C[C@@]1(C)C(=O)OC)c1ccccc1N2S(=O)(=O)c1ccccc1 (stereo partly specified) | > 100 µM (inactive) | > 100 µM (inactive) | > 100 µM (inactive) | > 100 µM (inactive) | – | – | > 100 µM (inactive) | > 100 µM (inactive) | > 100 µM (inactive) | > 100 µM (inactive) | > 100 µM (inactive) | > 100 µM (inactive) | > 100 µM (inactive) | > 100 µM (inactive) | > 100 µM (inactive) | > 100 µM (inactive) | > 100 µM (inactive) | > 100 µM (inactive) | > 100 µM (inactive) | > 100 µM (inactive)
7 | Nc1nc(N)c2ncn(-c3ccc(Cl)cc3)c2n1 | 20.4 µM (inactive) | 75.5 µM (inactive) | 10.1 µM (inactive) | 30.2 µM (inactive) | 24.8 µM | 74.3 µM (inactive) | 24.8 µM (inactive) | 35.1 µM (inactive) | 6.97 µM (inactive) | 26.8 µM (inactive) | 39 µM (inactive) | 89.1 µM (inactive) | 30.1 µM (inactive) | – | 19.3 µM (inactive) | 33.7 µM (inactive) | 39.6 µM (inactive) | 23.6 µM (inactive) | 25.5 µM (inactive) | 20 µM (inactive)
